Reference: article PMC11161644, “An effective and rapidly degradable disinfectant from disinfection byproducts” (Nature Communications, 2024)
Values joined by “and” are separate entries in the source; they are usually repeats but may differ in a detail not shown here. Identical values can stand only once. Like-named read-outs stand apart in the source and are kept apart here.

How the values were obtained:
[1] = Degradation in seawater with simulated solar irradiation; conditions: for half-life at 10 mg L−1: buffer, pH 8.2; for Ln (C/C0): seawater pH 8.2, solar irradiation
Procedure: The solar photolysis experiments were conducted in a chamber equipped with eight simulated sunlight full-spectrum lamps (BlueMax 5900, Full Spectrum Solutions). The temperature in the chamber was maintained at 20 °C. The total intensity of simulated sunlight was determined using a digital photometer (DT-1010B, Shenzhen Golden Octopus, China). Quartz flasks were positioned in the chamber where the total intensity of simulated sunlight was 4.79 ± 0.04 mW cm^−2 for each quartz flask. […] A DBP was added at 10 mg L^−1 to 50 mL pretreated seawater (pH 8.2) in the quartz flasks and exposed to the simulated solar irradiation for 0‒96 h. Every 8 h, the quartz flasks were rotated in and out of the chamber, and the sample volume was determined and adjusted with ultrapure water to account for any water evaporation. During the solar irradiation experiments, the sample was adjusted to pH 6.2 and 7.2 or maintained at pH 8.2 by adding 4 mM phosphate buffer (pH 6.2, 7.2, and 8.2, respectively).
(§1) For the DBP samples with and without sunlight, aliquots were taken at a specific reaction time. The sample aliquots were analyzed using Agilent high-performance liquid chromatography (HPLC) equipped with a Poroshell 120 EC-C18 column (4.6 × 150 mm, 4 µm particle size, Agilent) and a UV detector. The mobile phase, consisting of water (pre-adjusted to pH 2 with phosphoric acid) and acetonitrile at 50/50 (v/v), was applied at a flow rate of 1.0 mL min^−1. PCMX, 2,4-dihalophenols and 5-halosalicylic acids were detected at the wavelength of 230 nm. 2,5-Dihalohydroquinones and 2,6-DCQ were detected at the wavelength of 280 nm. All the degradation experiments were conducted in duplicate.

P. dumerilii embryos = experiment: Developmental toxicity assay with P. dumerilii embryos, dilution factor of in-use concentration (EC50,DF), also after degradation in darkness; format: in vivo, Platynereis dumerilii
Text: The DBP doses for 3-log E. coli reduction (pH 7.2) were set as the in-use concentrations, which were serially diluted and added to the P. dumerilii embryos at 12-h postfertilization. A dilution factor was defined as the ratio of the in-use concentration to the exposure concentration. Each exposure set contained a control sample (i.e., the embryos at 12-h postfertilization developed in seawater without the addition of DBPs). By 24-h postfertilization, normally developed embryos should have reached the first larval stage. An inverted stereomicroscope (×40 magnification) was used to observe the larvae. The normal development percentage was calculated as the ratio of normally developed embryos to total embryos. By plotting the curve of the normal development percentage versus the dilution factor, the EC50,DF value (i.e., the dilution factor corresponding to 50% of the normal development percentage of the control sample) was obtained using SigmaPlot 12. The developmental toxicity test was conducted in duplicate.

S. aureus (ATCC 25923) = experiment: Inactivation of S. aureus (contact time 5 min); format: cell-based, Staphylococcus aureus; conditions: Staphylococcus aureus, ATCC25923, 5 min, pH 7.2, read-out: Log (N/N0), S. aureus; dose 300 mg L-1; pH 7.2; contact time 5 min
Procedure: (§2) The chemicals and reagents used are detailed in Supplementary Note 1. The bacteria E. coli (ATCC 25922) and S. aureus (ATCC 25923) were cultured aerobically in Luria-Bertani broth (Sigma-Aldrich) and Tryptone Soya broth (Oxoid), respectively, at 37 °C for 16 h. The fungus C. albicans (ATCC 14053) was aerobically cultured in Sabouraud Dextrose broth (Difco) at 37 °C for 24 h. The microorganism cells were harvested by centrifugation at 1200×g (10 min, 4 °C) and resuspended in phosphate-buffered saline (PBS, 10 mM, pH 7.2). The disinfection experiments were performed in PBS solutions (10 mM, pH 7.2) with an initial concentration of E. coli, S. aureus, or C. albicans of 10^6‒10^7 cells per milliliter. A contact time of 5 min was used in accordance with the recommended time range of 0.25–10 min by USEPA for surface disinfection. Preliminary tests were conducted to determine the appropriate range of DBP doses. The appropriate dose range was established when the lowest and highest doses could achieve <1-log and >3-log of microbial inactivation, respectively. Based on the preliminary results, a series of doses of DBPs were added to the cell suspensions at room temperature (22 ± 1 °C). After the contact time of 5 min, the microorganism cells were enumerated following a membrane filter method. Briefly, serial 10-fold dilutions were conducted for the disinfected samples and the control sample without disinfection. Each diluted suspension was subjected to filtration through 0.45-μm membrane, which was then placed on a petri dish. The Petri dishes containing E. coli, S. aureus, and C. albicans were incubated in m-FC medium (Becton Dickinson & Co) at 45 °C for 24 h, in Tryptone Soya broth at 37 °C for 24 h and in Sabouraud Dextrose broth at 37 °C for 24 h, respectively. After incubation, the colony-forming units within a statistically reasonable range (20–80) were counted.

[2] = Degradation in seawater in darkness (pH 6.2, 7.2, 8.2); conditions: for Ln (C/C0): seawater pH 8.2, darkness
Procedure: To study the DBP degradation in seawater in darkness, a DBP was added at 10 mg L^−1 to 50 mL pretreated seawater (pH 8.2) in the quartz flasks. The flasks were wrapped with aluminum foil to simulate the dark condition. The samples were kept at 20 °C in darkness for 0‒120 h, during which the sample was adjusted to pH 6.2 and 7.2 or maintained at pH 8.2 by adding 4 mM phosphate buffer (pH 6.2, 7.2, and 8.2, respectively).
as §1

E. coli (ATCC 25922) = experiment: Inactivation of E. coli by disinfectants (membrane filter enumeration, contact time 5 min); format: cell-based, Escherichia coli; conditions: for log reduction at 350 µg/mL / EC (3-log inactivation) / log reduction at 1200 µg/mL: Escherichia coli, ATCC25922, 5 min; for log reduction at 350 µg/mL: dose 350 mg L-1; for log reduction at 350 µg/mL / log reduction at 1200 µg/mL: 5 min; for EC (3-log inactivation): pH 7.2, read-out: Dose for achieving 3-log inactivation of E. coli; for E. coli inactivation rate constant k: pH 7.2, contact time 5 min; for log reduction at 1200 µg/mL: dose 1200 mg L-1
Procedure: as §2
The impact of pH on the disinfection efficiencies of DBPs was examined. E. coli (ATCC 25922) was used as the test strain. The disinfection experiments were performed in 10 mM PBS solutions (pH 6.2, 7.2, and 8.2) with an initial E. coli concentration of 10^6‒10^7 cells per milliliter. To initiate the disinfection, a DBP was dosed with a bacteria suspension at a predetermined concentration. After the given contact time (5 min) at room temperature (22 ± 1 °C), the bacteria were enumerated following the membrane filter method. The bacteria concentrations in the 10 mM PBS solutions (pH 6.2, 7.2, and 8.2) without the addition of DBPs were used as controls.

[3] = test system: bacteriophage MS2 (ATCC 15597-B1); experiment: Inactivation of bacteriophage MS2 (double-layer agar, contact time 5 min); format: cell-based; conditions: Escherichia phage MS2, ATCC15597, 5 min, pH 7.2, read-out: Log (N/N0), MS2; dose 300 mg L-1; pH 7.2; contact time 5 min
Procedure: The bacteriophage MS2 (ATCC 15597-B1) was propagated in the host E. coli (ATCC 15597) in Tryptone Soya broth at 37 °C for 16 h. The viruses were separated from the bacterial debris and purified by centrifuging the phage culture (4000×g, 10 min, 4 °C) and filtering the lysate with a 0.2 μm polyethersulfone sterile filter. The filtrate was then diluted in PBS (10 mM, pH 7.2) to an initial MS2 concentration of 10^9‒10^10 plaque-forming units […]. To initiate the disinfection experiments, a series of DBP doses were added to the MS2 suspension at room temperature (22 ± 1 °C). […] Briefly, serial 10-fold dilutions were conducted for the disinfected samples and the control sample without disinfection. Each dilution was mixed with the host E. coli in the soft agar and the mixture was immediately spread onto a Petri dish with Tryptone Soya agar. After the Petri dishes were incubated at 37 °C for 16 h, the plaque-forming units were counted. The disinfection experiments were performed in duplicate. All the materials for the disinfection experiments were autoclaved before use.

C. albicans (ATCC 14053) = experiment: Inactivation of C. albicans (contact time 5 min); format: cell-based, Candida albicans; conditions: Candida albicans, ATCC14053, 5 min, pH 7.2, read-out: Log (N/N0), C. albicans; dose 300 mg L-1; pH 7.2; contact time 5 min
Procedure: as §2

[4] = pH 6.2, read-out: Log (N/N0), E. coli, pH 6.2
[5] = pH 7.2, read-out: Log (N/N0), E. coli, pH 7.2
[6] = pH 8.2, read-out: Log (N/N0), E. coli, pH 8.2

## Oc1ccc(Br)cc1Br [2,4-DBPh, 2,4-dibromophenol]
[1]
  half-life at 10 mg L−1: 35 h
[1]; 0 h
  Ln (C/C0): 0
P. dumerilii embryos; dilution factor 11.1486
  Normal development (%): 0%
P. dumerilii embryos; dilution factor 13.3783
  Normal development (%): 15.2624% and 20.2196%
P. dumerilii embryos; dilution factor 16.7229
  Normal development (%): 45.6306% and 47.4814%
P. dumerilii embryos; dilution factor 22.2972
  Normal development (%): 71.5034% and 77.6566%
P. dumerilii embryos; dilution factor 33.4458
  Normal development (%): 83.2326% and 85.1374%
P. dumerilii embryos; dilution factor 66.8916
  Normal development (%): 89.9171% and 84.7809%
P. dumerilii embryos; dilution factor 133.783
  Normal development (%): 89.4695% and 80.5305%
S. aureus (ATCC 25923)
  log reduction at 300 µg/mL: 0.669
[2]; 0 h
  Ln (C/C0): 0
E. coli (ATCC 25922); [4]
  log reduction at 350 µg/mL: 3.35
E. coli (ATCC 25922)
  EC (3-log inactivation): 341 µg/mL
  E. coli inactivation rate constant k: 0.28 L mg‒1 h‒1
E. coli (ATCC 25922); [5]
  log reduction at 350 µg/mL: 3.26
E. coli (ATCC 25922); [6]
  log reduction at 350 µg/mL: 3.57
[3]
  log reduction at 300 µg/mL: 0.966
C. albicans (ATCC 14053)
  log reduction at 300 µg/mL: 1.67

## Oc1cc(Cl)c(O)cc1Cl [2,5-DCHQ, 2,5-dichlorohydroquinone]
[1]
  half-life at 10 mg L−1: 0.12 h
[1]; 0 min
  Ln (C/C0): 0
P. dumerilii embryos; dilution factor 557.542
  Normal development (%): 8.642% and 6.061%
P. dumerilii embryos; dilution factor 1115.08
  Normal development (%): 42.6369% and 40.0555%
P. dumerilii embryos; dilution factor 1393.85
  Normal development (%): 77.0891% and 77.2417%
P. dumerilii embryos; dilution factor 2787.71
  Normal development (%): 85.5556% and 87.7778%
P. dumerilii embryos; dilution factor 5575.42
  Normal development (%): 88.6789% and 83.1961%
S. aureus (ATCC 25923)
  log reduction at 300 µg/mL: 0.434
[2]; buffer, pH 8.2
  half-life at 10 mg L−1: 7.8 min
[2]; pH 6.2, degradation time 0 min
  Relative concentration remaining (1 at 0 min): 1
[2]; pH 6.2, degradation time 15 min
  Relative concentration remaining (1 at 0 min): 1.022 and 0.9793
[2]; pH 6.2, degradation time 30 min
  Relative concentration remaining (1 at 0 min): 0.9852 and 1.003
[2]; pH 6.2, degradation time 60 min
  Relative concentration remaining (1 at 0 min): 1.02 and 0.9636
[2]; pH 6.2, degradation time 90 min
  Relative concentration remaining (1 at 0 min): 0.9949 and 0.9533
[2]; pH 6.2, degradation time 120 min
  Relative concentration remaining (1 at 0 min): 0.9685 and 0.9533
[2]; pH 6.2, degradation time 180 min
  Relative concentration remaining (1 at 0 min): 0.9436 and 0.9061
[2]; pH 6.2, degradation time 240 min
  Relative concentration remaining (1 at 0 min): 0.9109 and 0.8967
[2]; pH 7.2, degradation time 0 min
  Relative concentration remaining (1 at 0 min): 1
[2]; pH 7.2, degradation time 15 min
  Relative concentration remaining (1 at 0 min): 0.972 and 0.958
[2]; pH 7.2, degradation time 30 min
  Relative concentration remaining (1 at 0 min): 0.8774 and 0.8538
[2]; pH 7.2, degradation time 45 min
  Relative concentration remaining (1 at 0 min): 0.7996 and 0.7512
[2]; pH 7.2, degradation time 60 min
  Relative concentration remaining (1 at 0 min): 0.6873 and 0.677
[2]; pH 7.2, degradation time 90 min
  Relative concentration remaining (1 at 0 min): 0.5344 and 0.5155
[2]; pH 7.2, degradation time 120 min
  Relative concentration remaining (1 at 0 min): 0.3928 and 0.369
[2]; pH 7.2, degradation time 180 min
  Relative concentration remaining (1 at 0 min): 0.2793 and 0.2513
[2]; pH 8.2, degradation time 0 min
  Relative concentration remaining (1 at 0 min): 1
[2]; pH 8.2, degradation time 3 min
  Relative concentration remaining (1 at 0 min): 0.7671 and 0.7343
[2]; pH 8.2, degradation time 8 min
  Relative concentration remaining (1 at 0 min): 0.4955 and 0.4354
[2]; pH 8.2, degradation time 12 min
  Relative concentration remaining (1 at 0 min): 0.3245 and 0.3105
[2]; pH 8.2, degradation time 16 min
  Relative concentration remaining (1 at 0 min): 0.2259 and 0.2074
[2]; pH 8.2, degradation time 20 min
  Relative concentration remaining (1 at 0 min): 0.1584 and 0.1371
[2]; pH 8.2, degradation time 25 min
  Relative concentration remaining (1 at 0 min): 0.1047 and 0.0786
[2]; 0 min
  Ln (C/C0): 0
E. coli (ATCC 25922); [4]
  log reduction at 1200 µg/mL: 2.28
E. coli (ATCC 25922)
  EC (3-log inactivation): 946 µg/mL
  E. coli inactivation rate constant k: 0.05 L mg‒1 h‒1
E. coli (ATCC 25922); [5]
  log reduction at 1200 µg/mL: 3.73
E. coli (ATCC 25922); [6]
  log reduction at 1200 µg/mL: 4.18
